The target of this experiment is T1, Human CB2 (Homo sapiens, UniProt P34972).
T1 construct: expressed in transfected cells; host or cells: CHO-K1 (Chinese hamster ovary K1) cells
Description: Agonist-induced cAMP change in human CB2 transfected CHO-K1 cells. Particulars: forskolin 5 μM stimulated cAMP; for EC50: 30 min 37° C. It counts as cell-based. On the procedure:
Agonist-induced cAMP Change in Human CB2 Transfected CHO-K1 Cells
Human CB2 transfected Chinese hamster ovary-K1 (CHO-K1) cells were established and grown to 60-80% confluence. The medium was changed to F-12 medium containing 10% dialysed FBS, and the cells were incubated overnight. On the day of the assay, the cells were harvested with PBS/1 mM EDTA, centrifuged and washed with PBS. Cell pellets were resuspended in the incubation buffer (F-12 medium, 20 mM HEPES, 1 mM IBMX, 0.1 mM Ro-20-1724) at the concentration of 1×10^5 cells/ml and pre-incubated for 15 min at room temperature. The agonist samples were diluted from 10 mM stock solution in DMSO and dispensed into 96-well half-area plates (12.5 μl/well) with assay buffer (F-12, 20 mM HEPES). The reaction was initiated by adding the cells (25 μl/well) into the well containing forskolin (12.5 μL/well, final 5 μM) and diluted compounds. After incubation for 30 minutes at 37° C., cAMP-XL665 conjugated, and then the anti-cAMP-cryptase conjugate was added to the lysate (25 μl/well each). After further incubation for 60 minutes at room temperature, measurements were made on the Wallac 1420 ARVOsx multilabel counter (Excitation 320 nm, Emission 665 nm/620 nm, delay time 50 μs, window time 400 μs). Data analysis was made based on the ratio of fluorescence intensity of each well at 620 nm and 665 nm. The equation “sigmoldal dose-response” was used for the determination of EC50 and Emax values.

These results are taken from patent US7700618B2 (Pfizer Inc, priority 2006, dated 2010).

T1 sequence (P34972 whole entry): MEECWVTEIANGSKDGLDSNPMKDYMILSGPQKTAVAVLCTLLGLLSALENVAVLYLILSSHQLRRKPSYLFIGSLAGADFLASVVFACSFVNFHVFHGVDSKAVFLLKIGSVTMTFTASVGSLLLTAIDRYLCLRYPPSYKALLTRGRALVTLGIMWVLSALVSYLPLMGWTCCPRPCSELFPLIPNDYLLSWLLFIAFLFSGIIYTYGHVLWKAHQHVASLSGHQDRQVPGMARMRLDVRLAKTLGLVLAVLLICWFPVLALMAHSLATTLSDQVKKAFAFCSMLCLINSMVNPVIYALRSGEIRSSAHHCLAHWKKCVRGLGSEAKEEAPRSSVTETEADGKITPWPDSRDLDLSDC

Consider `CC(=O)NCC(C)(C)S(=O)(=O)c1ccc2c(c1)nc(CC(C)(C)C)n2CC1CC1` [Example 13, N-(2-{[1-(Cyclopropylmethyl)-2-(2,2-dimethylpropyl)-1H-benzimidazol-5-yl]sulfonyl}-2-methylpropyl)acetamide], for which the Emax is 113% and the midpoint of the response, the EC50, lay at 5.24 nM.

`CNC(=O)NCC(C)(C)S(=O)(=O)c1ccc2c(c1)nc(CC(C)(C)C)n2CC1CC1` [Example 16, N-(2-{[1-(Cyclopropylmethyl)-2-(2,2-dimethylpropyl)-1H-benzimidazol-5-yl]sulfonyl}-2-methylpropyl)-N′-methylurea] displayed an Emax of 109% and an EC50 of 1.22 nM.

In the case of `CNC(=O)C(C)(C)S(=O)(=O)c1ccc2c(c1)nc(CC(C)(C)C)n2CC1CC1` [Example 8, 2-{[1-(Cyclopropylmethyl)-2-(2,2-dimethylpropyl)-1H-benzimidazol-5-yl]sulfonyl}-N,2-dimethylpropanamide], the maximum response (Emax) came out at 129% and the EC50 is 6.68 nM.

`CC(C)(C)c1nc2cc(S(=O)(=O)C(C)(C)C(N)=O)ccc2n1CC1(O)CCCC1` [Example 12, 2-({2-tert-Butyl-1-[(1-hydroxycyclopentyl)methyl]-1H-benzimidazol-5-yl}sulfonyl)-2-methylpropanamide]: the Emax is 133% and the EC50 turned out to be 5.34 nM.

Turning to `CN(C)C(=O)C(C)(C)S(=O)(=O)c1ccc2c(c1)nc(CC(C)(C)C)n2CC1CC1` [Example 7, 2-{[1-(Cyclopropylmethyl)-2-(2,2-dimethylpropyl)-1H-benzimidazol-5-yl]sulfonyl}-N,N,2-trimethylpropanamide], the Emax amounted to 141% and the EC50 was 1.34 nM.

In turn, `CC(C)(C)Cc1nc2cc(S(=O)(=O)C3(C(N)=O)CCOCC3)ccc2n1CC1CC1` [Example 4, 4-{[1-(Cyclopropylmethyl)-2-(2,2-dimethylpropyl)-1H-benzimidazol-5-yl]sulfonyl}tetrahydro-2H-pyran-4-carboxamide] had an Emax of 114% and an EC50 of 1.31 nM.

On to `CC(C)(C)Cc1nc2cc(S(=O)(=O)CC(C)(C)NC(N)=O)ccc2n1CC1CC1` [Example 18, N-(2-{[1-(Cyclopropylmethyl)-2-(2,2-dimethylpropyl)-1H-benzimidazol-5-yl]sulfonyl}-1,1-dimethylethyl)urea], for which the Emax is 109% and a half-maximal response (EC50) required 26.4 nM.

As for `CC(C)(C)Cc1nc2cc(S(=O)(=O)C(C)(C)C(N)=O)cnc2n1CC1CC1` [Example 5, 2-{[3-(Cyclopropylmethyl)-2-(2,2-dimethylpropyl)-3H-imidazo[4,5-b]pyridin-6-yl]sulfonyl}-2-methylpropanamide], the Emax was found to be 118% and the response was half-maximal at 5.53 nM (EC50).

`CC(C)(C)Cc1nc2cc(S(=O)(=O)C3(C(N)=O)CCC3)ccc2n1CC1CC1` [Example 3, 1-{[1-(Cyclopropylmethyl)-2-(2,2-dimethylpropyl)-1H-benzimidazol-5-yl]sulfonyl}cyclobutanecarboxamide] showed an Emax of 121% and an EC50 of 0.45 nM.

Compound `CC(C)(C)Cc1nc2cc(S(=O)(=O)C(C)(C)C(N)=O)ccc2n1CC1CC1` [Example 1, 2-{[1-(Cyclopropylmethyl)-2-(2,2-dimethylpropyl)-1H-benzimidazol-5-yl]sulfonyl}-2-methylpropanamide] showed an Emax of 118% and an EC50 of 0.91 nM.

Compound `CC(C)(C)Cc1nc2cc(S(=O)(=O)C(C)(C)C(=O)NCC(N)=O)ccc2n1CC1CC1` [Example 10] registered an Emax of 109% and an EC50 of 3.64 nM.

As to `CC(C)(C)Cc1nc2cc(S(=O)(=O)C(C)(C)C(=O)N3CCOCC3)ccc2n1CC1CC1` [Example 6, 1-(Cyclopropylmethyl)-5-[(1,1-dimethyl-2-morpholin-4-yl-2-oxoethyl)sulfonyl]-2-(2,2-dimethylpropyl)-1H-benzimidazole], the Emax is 136% and the EC50 is 2.96 nM.

On to `CC(C)(C)Cc1nc2cc(S(=O)(=O)C(C)(C)CNS(C)(=O)=O)ccc2n1CC1CC1` [Example 14, N-(2-{[1-(Cyclopropylmethyl)-2-(2,2-dimethylpropyl)-1H-benzimidazol-5-yl]sulfonyl}-2-methylpropyl)methanesulfonamide], for which the Emax turned out to be 120% and the EC50 came out at 1.59 nM.

Compound `CC(C)(C)Cc1nc2cc(S(=O)(=O)C(C)(C)C(=O)NCCO)ccc2n1CC1CC1` [Example 9, 2-{[1-(Cyclopropylmethyl)-2-(2,2-dimethylpropyl)-1H-benzimidazol-5-yl]sulfonyl}-N-(2-hydroxyethyl)-2-methylpropanamide] displayed an Emax of 127% and an EC50 of 1.13 nM.

With `CC(=O)NC(C)(C)CS(=O)(=O)c1ccc2c(c1)nc(CC(C)(C)C)n2CC1CC1` [Example 19, N-(2-{[1-(Cyclopropylmethyl)-2-(2,2-dimethylpropyl)-1H-benzimidazol-5-yl]sulfonyl}-1,1-dimethylethyl)acetamide], the Emax was found to be 110% and the midpoint of the response, the EC50, lay at 3.77 nM.

For `CC(C)(C)Cc1nc2cc(S(=O)(=O)C3(C(N)=O)CC3)ccc2n1CC1CC1` [Example 2, 1-{[1-(Cyclopropylmethyl)-2-(2,2-dimethylpropyl)-1H-benzimidazol-5-yl]sulfonyl}cyclopropanecarboxamide], the Emax was 160% and a half-maximal effect (EC50) was put at 0.15 nM.

Compound `CN(C)C(=O)NCC(C)(C)S(=O)(=O)c1ccc2c(c1)nc(CC(C)(C)C)n2CC1CC1` [Example 15, N′-(2-{[1-(Cyclopropylmethyl)-2-(2,2-dimethylpropyl)-1H-benzimidazol-5-yl]sulfonyl}-2-methylpropyl)-N,N-dimethylurea] showed an Emax of 113% and an EC50 of 8.31 nM.

`CC(C)(C)Cc1nc2cc(S(=O)(=O)C(C)(C)C(=O)NCCN)ccc2n1CC1CC1` [Example 11] yielded an Emax of 117% and an EC50 of 13.7 nM.

`CC(C)(C)Cc1nc2cc(S(=O)(=O)C(C)(C)CNC(N)=O)ccc2n1CC1CC1` [Example 17, N-(2-{[1-(Cyclopropylmethyl)-2-(2,2-dimethylpropyl)-1H-benzimidazol-5-yl]sulfonyl}-2-methylpropyl)urea] came in with an Emax of 120% and an EC50 of 1.98 nM.
